According to patent US10031125B2, “Diagnosis and treatment of invasive aspergillosis” (THE BRIGHAM AND WOMEN'S HOSPITAL, INC., priority 2012, dated 2018):
Starred links: 1 amine or outer side, 2 acyl side, 3 side chain; linkers in the order of their positions; H or OH if unused. Positions of bridges follow the written chain, without caps; N, C: chain ends. Non-standard residues stand in square brackets, D forms with d. Residues, ends and D or L forms follow the SMILES beside them. *: point of attachment. hTyr(3S-OH,4S-OH,3'-OSO3H) = N[C@H](C(=O)O)[C@H](O)[C@@H](O)c1ccc(O)c(OS(=O)(=O)O)c1; Orn(4R-OH,5R-OH) = O=C([C@H](C[C@@H](O)[C@@H](O)N[*:3])N[*:1])[*:2]; Pro(3S-OH,4S-Me) = C[C@H]1CN[C@H](C(=O)O)[C@H]1O; X1 = CCCCCOc1ccc(-c2cc(-c3ccc(C(=O)*)cc3)no2)cc1; Gln(3R-OH) = NC(=O)C[C@@H](O)[C@H](N)C(=O)O; Hyp = O=C(O)[C@@H]1C[C@@H](O)CN1

What was measured:
A. terreus = conditions: some isolates; Baddley et al., J. Clin. Microbiol. 2009; cited from earlier work
Aspergillus fumigatus = assay: Antifungal exposure modulates the release of VOCs in A. fumigatus in vitro (headspace GC-MS); assay type: cell-based; conditions: for change in key A. fumigatus VOC features at 24 hours: compared to matched control samples
Description: For each experiment, 10^4 conidia were inoculated into 5 mL of microbial media (either nutrient Yeast Extract Peptone Dextrose (YPD) broth, nutrient poor Aspergillus minimal media (Pontecorvo et al., Advan Genet 1953; 5:141-238), or under iron-starved, alkaline stress, or nitrogen-depleted conditions (McDonagh et al., PLoS Pathog 2008; 4:e1000154)) in 20 mL glass vials with an airtight crimp top incorporating a rubber septum. Cultures were incubated for 24-144 hours at 200 rpm and 37° C. and headspace gas was dynamically adsorbed, using argon carrier gas and an air sampling pump calibrated to 20 mL/minute, onto Markes thermal desorption traps containing tandem beds of Tenax TA (200 mg), Carbograph 1 TD (100 mg), and Carboxen 1003 (100 mg), optimized to retain VOCs of diverse size and polarity.
Headspace VOCs were also collected after exposure of a subset of fungal isolates to the antifungal drugs voriconazole, liposomal amphotericin B, and micafungin, each at a concentration of […].
VOCs were desorbed onto a dual GC-MS/DMS system (FIG. 1)—the eluent from the gas chromatograph was split between the MS, to allow identification of each compound, and the DMS, an extremely sensitive and selective gas detector that can be easily used as a point-of-care gas detection device, to determine the mobility pattern for each compound. The NIST MS Search 2.0 Library was used to identify VOCs in the total ion chromatogram (TIC) of the GC-MS data. Differences in spectral features of DMS output were visually distinguished between the positive ion spectra of A. fumigatus and A. terreus and principal component analysis (PCA) was used to evaluate the degree of class discrimination between these fungal species using algorithms in MATLAB (Version R2012a).
Whether exposure to antifungal drugs might modulate VOC release in Aspergillus fumigatus was assessed in vitro.

[1] = added to 48-hour hyphal cultures, after 24 hours, 1.0 mg/mL

Compound | susceptibility of A. terreus isolates (A. terreus) | increase in some of the key A. fumigatus VOC features (Aspergillus fumigatus; added to 48-hour hyphal cultures, after 24 hours, compared to matched control samples without drug, 1.0 mg/mL) [fold] | change in key A. fumigatus VOC features at 24 hours (Aspergillus fumigatus; [1]) | key A. fumigatus VOC features with longer incubation (Aspergillus fumigatus; longer duration of incubation and hyphal death)
C[C@@H]1[C@H](O)[C@@H](C)/C=C/C=C/C=C/C=C/C=C/C=C/C=C/[C@H](O[C@@H]2O[C@H](C)[C@@H](O)[C@H](N)[C@@H]2O)C[C@@H]2O[C@](O)(C[C@@H](O)C[C@@H](O)[C@H](O)CC[C@@H](O)C[C@@H](O)CC(=O)O[C@H]1C)C[C@H](O)[C@H]2C(=O)O [AMB, amphotericin B] | resistant | – | – | –
CCCCCOc1ccc(-c2cc(-c3ccc(C(=O)N[C@H]4C[C@@H](O)[C@@H](O)NC(=O)[C@@H]5[C@@H](O)[C@@H](C)CN5C(=O)[C@H]([C@H](O)CC(N)=O)NC(=O)[C@H]([C@H](O)[C@@H](O)c5ccc(O)c(OS(=O)(=O)O)c5)NC(=O)[C@@H]5C[C@@H](O)CN5C(=O)[C@H]([C@@H](C)O)NC4=O)cc3)no2)cc1 [micafungin] (X1-[Orn(4R-OH,5R-OH)]T[Hyp][hTyr(3S-OH,4S-OH,3'-OSO3H)][Gln(3R-OH)][Pro(3S-OH,4S-Me)]; lactam 1-C) | – | ≤ 17 | initial increase | attenuation
C[C@@H](c1ncncc1F)[C@](O)(Cn1cncn1)c1ccc(F)cc1F [voriconazole] | – | – | near-complete attenuation | –
